# Values of other authors, collected in patent US6514527B1, “Compositions comprising a mixture of bioflavonols” (Merck Patentgesellschaft, priority 1998, dated 2003).
# Details: orally administered
compound,measurement,value
O=c1c(O[C@@H]2O[C@H](CO)[C@@H](O)[C@H](O)[C@H]2O)c(-c2ccc(O)c(O)c2)oc2cc(O)cc(O)c12 [isoquercetin],time to reach peak,about 0.70 h
O=c1c(O)c(-c2ccc(O)c(O)c2)oc2cc(O)cc(O)c12 [quercetin],time to reach peak,about 3 h
